Test results reported in PMC8848508 (ACS Central Science, 2022).
Where two headings read alike, the source gives them in different places.

Legend:
SARS-CoV-2 [1] = settings: read-out: antiviral EC50, primary CPE assay, cited from earlier work
SARS-CoV-2 [2] = settings: read-out: antiviral EC50; cited from earlier work
SARS-CoV-2 [3] = settings: read-out: antiviral EC50; genomic RNA quantification; cited from earlier work
SARS-CoV-2 M^Pro = SARS-CoV-2 M^Pro (Severe acute respiratory syndrome coronavirus 2, UniProt P0DTD1); assay type: biochemical; settings: at 16 μM inhibitor

Question: Which EC50 (SARS-CoV-2 [1]) does the source give for CC(C)(C)NC(=O)N[C@H](C(=O)N1C[C@H]2[C@@H]([C@H]1C(=O)NC(CC1CCC1)C(=O)C(N)=O)C2(C)C)C(C)(C)C (some centres unmarked) [boceprevir] here?
Answer: 1.31 ± 0.58 µM

Question: What about the EC50 (SARS-CoV-2 [2]) of the same molecule?
Answer: 15.6 µM

Question: Which EC50 (SARS-CoV-2 [1]; ACE2+ A549 cells) does the source give for CC(C)COCC(CN(Cc1ccccc1)c1ccccc1)N1CCCC1 (centres unmarked) [bepridil] here?
Answer: 0.46 µM

Question: With CCCCCCNC(=O)n1cc(F)c(=O)[nH]c1=O [carmofur] as the molecule, how does the EC50 (SARS-CoV-2 [3]) read?
Answer: > 100 µM

Question: For CCN(CC)CCCC(C)Nc1ccnc2cc(Cl)ccc12 (centres unmarked) [chloroquine], which “M^Pro retained activity” value (SARS-CoV-2 M^Pro) is on record?
Answer: 84%
